Square brackets hold non-standard residues; d marks the D form. Peptide text beside a SMILES is read from it. Phe(ol) = N[C@H](CO)Cc1ccccc1; Aib = CC(C)(N)C(=O)O
What was measured:
[1] = test system: SH-SY5Y cells; experiment: Respirometry (oxygen consumption rate, Seahorse XF96) in frozen SH-SY5Y cells; assay type: cell-based, human; settings: MAS supplemented with 10 μg/mL Alamethicin and 100 μg/mL cytochrome c vs MAS alone; FIG. 8
Description: (§1) All procedures are performed at 4° C. All equipment, solutions, and consumables are pre-chilled. • 1. Re-suspend sample in 20 μL MAS buffer. Load 5 technical replicates of each condition. Leave at least 4 empty wells to determine background signal. • 2. To adhere mitochondrial particles to the bottom of the plate, centrifuge the loaded plate at 2,000×g for 5 min at 4° C. using plate carrier rotating buckets. […] After centrifugation, adjust the total volume of the wells to 150 uL by adding 130 uL MAS assay buffer per well. Supplement MAS buffer with 1-200 μg/mL cytochrome c and 1-500 μg/mL Alamethicin if maximal respiration is not reached on MAS alone. To avoid disrupting mitochondrial adherence to the bottom of the plate, add MAS using multichannel pipette pointed at a 45° angle to the top of well chamber, as instructed by the manufacturer. • 4. Incubate the plate at 37° C. in a non-CO2 incubator for 5 minutes. • 5. Insert plate into XF96 and begin assay protocol. Measure oxygen consumption rate (OCR) before and after every injection. Mix, wait, and measure times can vary between 1-7 minutes and 1-5 repetitions.
1. SH-SY5Y cells were cultured according to ATCC instructions. 2. When the cells reached 80% confluency, they were trypsinized, counted, spun down, washed in PBS, and frozen. 3. Cells were thawed on ice and re-suspended in MAS. 4. […]

[2] = test system: frozen murine liver tissue homogenate; experiment: Respirometry (oxygen consumption rate, Seahorse XF96) in frozen murine liver homogenate; settings: MAS supplemented with 100 μg/mL cytochrome c vs MAS alone; NADH and TMPD/Ascorbate injections; FIG. 3
Description: as §1
1. Homogenate was prepared from previously frozen murine liver tissue in MAS using glass/Teflon dounce homogenizer. The preparation was centrifuged at 1,000×g for 5 minutes at 4° C. and the supernatant transferred to a new tube. 2. […]

**Q.** With CC(=O)NC(C)(C)C(=O)N1CCC[C@H]1C(=O)NC(C)(C)C(=O)N[C@@H](C)C(=O)NC(C)(C)C(=O)N[C@@H](C)C(=O)N[C@@H](CCC(N)=O)C(=O)NC(C)(C)C(=O)N[C@H](C(=O)NC(C)(C)C(=O)NCC(=O)N[C@@H](CC(C)C)C(=O)NC(C)(C)C(=O)N1CCC[C@H]1C(=O)N[C@H](C(=O)NC(C)(C)C(=O)NC(C)(C)C(=O)N[C@@H](CCC(=O)O)C(=O)N[C@@H](CCC(N)=O)C(=O)N[C@H](CO)Cc1ccccc1)C(C)C)C(C)C [Alamethicin] (Ac-[Aib]P[Aib]A[Aib]AQ[Aib]V[Aib]GL[Aib]PV[Aib][Aib]EQ[Phe(ol)]) as the compound, how does the “respiration in frozen cultured human bone marrow neuroblastoma cell line” value [1] read?
**A.** Enhances Respiration

**Q.** Which “respiration in frozen tissue homogenates” value [2] does the source give for cytochrome c here?
**A.** enhances respiration
